Assay results published in patent US11970497B2, “Tricyclic AKR1C3 dependent KARS inhibitors” (Novartis AG, priority 2019, dated 2024).

Assays:
Human KARS = target: T1, Human KARS (Homo sapiens, UniProt Q15046); assay: KARS AMP Transcreener FP assay; type: biochemical; settings: 50 nM human KARS, 20 μM ATP, 50 μM L-Lysine, 1 μM tRNA, 2 h at RT; read-out: Human KARS Transcreener AMP assay Qualified absolute AC50
T1 construct: Human KARS protein (residues 70-584) was expressed and purified; made in house
T1 sequence (Q15046 70-584): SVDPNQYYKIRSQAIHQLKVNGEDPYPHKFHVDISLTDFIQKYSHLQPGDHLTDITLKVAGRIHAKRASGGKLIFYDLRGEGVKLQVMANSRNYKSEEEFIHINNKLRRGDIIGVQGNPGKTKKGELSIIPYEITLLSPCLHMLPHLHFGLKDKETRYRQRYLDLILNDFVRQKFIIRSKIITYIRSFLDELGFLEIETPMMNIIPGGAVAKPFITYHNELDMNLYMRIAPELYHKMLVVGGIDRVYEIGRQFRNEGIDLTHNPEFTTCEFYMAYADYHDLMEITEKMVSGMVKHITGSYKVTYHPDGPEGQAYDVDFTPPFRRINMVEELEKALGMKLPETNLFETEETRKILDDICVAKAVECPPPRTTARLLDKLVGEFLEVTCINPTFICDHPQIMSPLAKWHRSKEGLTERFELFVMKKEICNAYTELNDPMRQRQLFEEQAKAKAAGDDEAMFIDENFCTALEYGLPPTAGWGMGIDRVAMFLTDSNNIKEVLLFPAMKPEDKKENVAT
Text: KARS AMP Transcreener FP Assay to Measure Inhibition of KARS Enzymatic Activity
Lysine-tRNA synthetase (KARS) is an enzyme that catalyzes the reaction of ATP, L-lysine, and tRNA(Lys) to form AMP, diphosphate, and L-lysyl-tRNA(Lys).
The Transceener® AMP/GMP (BellBrook Labs, Madison, WI, USA) is a far red, competitive fluorescence polarization (FP) immunoassay based on the detection of AMP, which is one of the products of aminoacylation of tRNA. In this assay, a fluorescently labeled AMP (AMP Alexa Fluor 633) is used as the tracer that can be recognized by a specific antibody. In the absence of AMP, all the tracer molecules are bound to the antibodies leading to large polarization. The AMP product generated by the enzyme reaction will compete with the tracer for binding to the antibody which leads to a decrease in the polarization. As such, the enzyme activity is inversely proportional to FP values.
Human KARS protein (residues 70-584) was expressed and purified using a similar protocol to what is described in literature (Crystal structure of tetrameric form of human lysyl-tRNA synthetase: Implications for multisynthetase complex formation Guo, M., Ignatov, M., Musier-Forsyth, K., Schimmel, P., Yang, X. L. (2008) Proc. Natl. Acad. Sci. Usa 105: 2331-2336).
The KARS enzyme assay was performed in a final volume of 10 μL per well of Corning Costar 384 well plate, flat bottom, black non-treated plate. The final assay concentration was 20 mM HEPES pH 7.5, 1 mM DTT, 50 nM human KARS, 20 μM ATP, 50 μM L-Lysine, 1 μM tRNA and 8 mM MgCl2. Compounds were serial diluted 1:3 in DMSO in a master plate to generate a 10 concentration points dose response with maximum concentration of 10 mM. 50 nL from compound master plate were spotted in each well of a 384 black plate (Corning 3573), and 5 μL of enzyme mixture containing 100 nM KARS diluted in assay buffer (20 mM HEPES pH 7.5 and 1 mM OTT) were added. The reaction was started by adding 5 μL of the substrate mixture containing 40 μM ATP (final 20 μM ATP), 100 μM L-Lysine (final 50 μM), 2 μM tRNA (final 1 μM), 16 mM MgCl2 (final 8 mM MgCl2) diluted in assay buffer (20 mM HEPES pH 7.5 and 1 mM OTT). The mixtures were mixed and incubated for 2 h at RT before the termination of the reaction.
Transcreener® stop and detection buffers were prepared (1× stop buffer [final: 0.5×], 2 nM Tracer [final: 1 nM] and 5 μg/ml anti-AMP antibody [final: 2.5 μg/ml] in deionized water) and 10 μL of the stop and detection mix were added to the reaction wells, mixed for a minute and centrifuged at 1000 rpm for 10 seconds. The plates were read after incubating at RT for 30-60 min using Infinite® M1000 with the following settings: Excitation wavelength: 635 nm; Emission wavelength: 680 nm. FP values of DMSO controls were used to normalize the data and calculate IC50s of compounds using the Helios Software suite.

[1] = system: NCI-H1944 (KEAP1 mutant, AKR1C3 expressing) cell line derived lung cancer xenografts; assay: PK/PD in NCI-H1944 xenograft (tumor DDIT3 and EGR1 mRNA induction); type: in vivo, mice; settings: single oral administration
Description: Compound 40 Dose Dependent Pharmacokinetics and Pharmacodynamic (PK/PD) Changes in the KEAP1 Mutant AKR1C3 Expressing Human Lung Cancer Xenograft NCI-H1944
The PK/PD relationship of Compound 40 was assessed in nude mice with established subcutaneous NCI-H1944 (KEAP1 mutant, AKR1C3 expressing) cell line derived lung cancer xenografts (FIG. 2). After a single oral administration of Compound 40, blood and tumor were collected to explore the PK profile of Compound 40 levels in blood and tumor. Compound 152, the active metabolite of the prodrug Compound 40 that inhibits KARS was also measured in tumor and blood. The PK data were compared to the tumor PD marker readouts of DDIT3 and EGR1 mRNA induction, downstream transcriptional readouts of KARS inhibition.

[2] = system: NCI-H1944 human lung cancer xenograft; assay: In vivo efficacy in NCI-H1944 xenograft; parameters: species or system mice
Description: Compound 40 Dose Dependent In Vivo Efficacy in High AKR1C3 Expressing Human Lung Cancer Xenograft NCI-H1944
Anti-cancer efficacy of Compound 40 was assessed in the NCI-H1944 human lung cancer xenograft model in mice that expresses high levels of AKR1C3. NCI-H1944 tumors were established in nude female mice by injection of a tumor cells subcutaneously. When tumors reached approximately 200 mm^3, mice were randomized according to tumor volume into treatment groups (n=8 per group) on Day 16.

[3] = system: NCI-H460 human lung cancer xenograft; assay: In vivo efficacy in NCI-H460 xenograft; parameters: species or system mice; settings: for ΔT/ΔC: qd, Day 18
Description: Compound 40 Dose Dependent In Vivo Efficacy in the KEAP1 Mutant and Moderately AKR1C3 Expressing Human Lung Cancer Xenograft NCI-H460
Anti-cancer efficacy of Compound 40 was assessed in the NCI-H460 human lung cancer xenograft model in mice that expresses moderate levels of AKR1C3. NCI-H460 tumors were established in nude female mice by injection of a tumor cells subcutaneously. When tumors reached approximately 200 mm^3, mice were randomized according to tumor volume into treatment groups (n=7 per group) on Day 8.

## O=C1CC2(CCN(C(=O)NCc3ccc(F)cc3)CC2)Nc2ccc(F)cc21 [Example 40]
Human KARS
  AC50: > 10 µM
[1]; dose escalation, NCI-H1944 xenografts
  duration of the induction of DDIT3 and EGR1 mRNA levels: increased with dose escalation
[1]; nude mice with NCI-H1944 xenografts
  tumor PD markers (DDIT3 and EGR1 mRNA induction) after dosing: remained elevated for 24 hours post-dose
[2]; 75 mg/kg po, qd, Day 44
  ΔT/ΔC: 4.9%
[2]; 75 mg/kg qd po
  Tumor response: Tumor stasis
[2]; 150 mg/kg po, qd, Day 44
  Regression: 98.5%
[2]; 300 mg/kg po, qd, Day 44
  Regression: 100%
[2]; all dose levels
  Tumor response: efficacy benefit
[2]; dose levels above 75 mg/kg qd, po
  Tumor response: deep tumor regression
[3]; 75 mg/kg qd
  Tumor response: clear reduction in efficacy
[3]; 75 mg/kg, po
  ΔT/ΔC: 25.9%
[3]; 150 mg/kg qd
  Tumor response: some reduction in efficacy
[3]; 150 mg/kg, po
  ΔT/ΔC: 5.6%
[3]; 300 mg/kg po
  ΔT/ΔC: 1.8%
[3]; 300 mg/kg qd
  Tumor response: Tumor stasis
